Assay [1] has as its system Mycobacterium tuberculosis. Briefly: Antitubercular activity against Mycobacterium tuberculosis H37Ra ATCC 25177 after 4 days by microtiter plate alamar blue technique. The settings on record: 96 h. In kind it is functional, organism-based.
The subject of assay [2] is MCF7. The assay is described as follows: Cytotoxicity against human MCF7 cells by SRB assay. In kind it is functional, cell-based.
Assay [3] has as its system HT-29. Briefly: Cytotoxicity against human HT29 cells by SRB assay. Format: functional, cell-based.
Assay [4] concerns HeLa. The assay is described as follows: Cytotoxicity against human HeLa cells by SRB assay. Format: functional, cell-based. A general note: Sulforhodamine B stains cellular protein and so reports cell mass.
Assay [5] relates to KB. The assay is described as follows: Cytotoxicity against human KB cells by SRB assay. Format: functional, cell-based.
Assay [6] relates to Mycobacterium tuberculosis. Briefly: Antimycobacterial activity against Mycobacterium tuberculosis H37Rv. Format: functional.
Assay [7] concerns HT-29. The assay is described as follows: Cytotoxicity against human HT29 cells at 10 uM by SRB assay. Format: functional.
Assay [8] deals with HeLa. Briefly: Cytotoxicity against human HeLa cells at 10 uM by SRB assay. Format: functional.
Assay [9] has as its system KB. Briefly: Cytotoxicity against human KB cells at 10 uM by SRB assay. In kind it is functional.
In assay [10] the test system is MCF7. The assay is described as follows: Cytotoxicity against human MCF7 cells at 10 uM by SRB assay. Format: functional.

In brackets after ≈: the same amount, converted by molar mass.

The values that follow come from ChEMBL document CHEMBL1148934, “Antitubercular sesterterpenes from the Thai sponge Brachiaster sp” (J Nat Prod, 2004).

In general, MIC refers to the lowest concentration found to suppress growth. Lower therefore signals a more susceptible organism. Broadly, the IC50 is the concentration that gives 50% inhibition. Higher therefore signals lower potency. In turn, `CC(=O)O[C@@H]1OC(=O)C=C1[C@H]1CC=C(CC/C=C(\C)CCC2=C(C)CCCC2(C)C)[C@H](O)O1` showed an MIC in assay [1] of 7 µM (≈ 3.21 µg/mL). Besides, the IC50 in assay [2] turned out to be 0.26 µM; in assay [3], 760 nM; in [4] it was 1680 nM; in [5], 630 nM.
For `CC1(C)CCC[C@]2(C)[C@H]3C[C@@H](O)[C@]4(C)[C@H]5COC(=O)C5=CC[C@H]4[C@]3(C)CC[C@@H]12` the same measures were 16 µM (≈ 6.19 µg/mL), 0.32 µM, 910 nM, 1990 nM and 750 nM.
`CC(=O)O[C@@H]1OC=C2[C@@H](OC(C)=O)C[C@H]3[C@]4(C)CC[C@H]5C(C)(C)CCC[C@]5(C)[C@H]4C[C@@H](O)[C@]3(C)[C@H]21` [HETERONEMIN]: the minimal inhibitory concentration (MIC) in assay [6] was found to be 6.25 µg/mL (≈ 12.8 µM); in [1] it was 3 µM (≈ 1.47 µg/mL). Also, the half-inhibitory concentration (IC50) came to 0.29 µM in assay [2], 390 nM in assay [3], 450 nM in assay [4] and 370 nM in [5].
Regarding `CC(=O)O[C@@H]1C[C@@H]2[C@@]3(C)CCCC(C)(C)[C@@H]3CC[C@@]2(C)[C@@H]2CC=C3C(=O)OC[C@@H]3[C@@]12C`, the IC50 in [1] is 117 µM; in assay [3], 2340 nM; in assay [4], 5490 nM; in assay [5] it was 3010 nM.
As for `CC(=O)OCC1=CC(=O)O[C@@H]1C/C=C(\CC/C=C(\C)CCC1=C(C)CCCC1(C)C)COC(C)=O`, in [1], the lowest concentration to inhibit growth (MIC) was 51 µM (≈ 24.8 µg/mL). In [2], this molecule came in with an IC50 of 9.34 µM. The Activity in assay [7], in [8] and in assay [9] was 80% throughout.
Molecule `CC(=O)OCC1=CC(=O)O[C@@H]1C/C=C(/CC/C=C(\C)CCC1=C(C)CCCC1(C)C)COC(C)=O` showed a minimum inhibitory concentration (MIC) in assay [1] of 26 µM (≈ 12.7 µg/mL). Moreover, in [2], the half-maximal inhibitory concentration (IC50) is 5.99 µM. Moreover, the Activity in assay [7], in assay [8] and in assay [9] was 80% each time.
In assay [1], `NC[C@H]1O[C@H](O[C@H]2[C@H](O)[C@@H](O[C@H]3O[C@H](CO)[C@@H](O)[C@H](N)[C@H]3O)[C@H](N)C[C@@H]2N)[C@H](O)[C@@H](O)[C@@H]1O` [KANAMYCIN] showed a minimum inhibitory concentration (MIC) of 3.5 µM (≈ 1.7 µg/mL).
On to `CC(=O)O[C@@H]1OC(=O)C2=CC[C@H]3[C@]4(C)CC[C@H]5C(C)(C)CCC[C@]5(C)[C@H]4CC[C@]3(C)[C@H]21`, for which it took 4 µM (≈ 1.71 µg/mL) to inhibit growth in assay [1] (MIC). The Activity in [10], in assay [7], in [8] and in [9] was 80% each time.
The molecule `CC(=O)O[C@@H]1OC=C2[C@@H](OC(C)=O)C[C@H]3[C@]4(C)CC[C@H]5C(C)(C)CCC[C@]5(C)[C@H]4C[C@@H](OC(C)=O)[C@]3(C)[C@H]21` [HETERONEMIN ACETATE] registered a minimum inhibitory concentration (MIC) in [1] of 6 µM. In assay [2], this molecule yielded an IC50 of 6.45 µM. Also, the Activity in assay [7], in assay [8] and in assay [9] was 80% in each case.
For the molecule `NNC(=O)c1ccncc1` [ISONIAZID], it took 0.29 µM (≈ 0.0398 µg/mL) to inhibit growth in assay [1] (MIC).
